According to ChEMBL document CHEMBL1955806, “Design, synthesis, single-crystal and preliminary antitumor activity of novel arenesulfonylimidazolidin-2-ones” (2012):

Key:
Type in all cases: functional
M14 = test: Growth inhibition of human M14 cells at 10 uM after 48 hrs by sulforhodamine B assay; conditions: M14, 48 h, read-out: GI
DU-145 = test: Growth inhibition of human DU145 cells at 10 uM after 48 hrs by sulforhodamine B assay; conditions: DU-145, 48 h, read-out: GI
COLO 205 = test: Growth inhibition of human COLO205 cells at 10 uM after 48 hrs by sulforhodamine B assay; conditions: COLO 205, 48 h, read-out: GI
SF-268 = test: Growth inhibition of human SF268 cells at 10 uM after 48 hrs by sulforhodamine B assay; conditions: SF-268, 48 h, read-out: GI
SNB-75 = test: Growth inhibition of human SNB75 cells at 10 uM after 48 hrs by sulforhodamine B assay; conditions: SNB-75, 48 h, read-out: GI
MDA-MB-468 = test: Growth inhibition of human MDA-MB-468 cells at 10 uM after 48 hrs by sulforhodamine B assay; conditions: MDA-MB-468, 48 h, read-out: GI
UACC-62 = test: Growth inhibition of human UACC62 cells at 10 uM after 48 hrs by sulforhodamine B assay; conditions: UACC-62, 48 h, read-out: GI
K562 = test: Growth inhibition of human K562 cells at 10 uM after 48 hrs by sulforhodamine B assay; conditions: K562, 48 h, read-out: GI
HCC 2998 = test: Growth inhibition of human HCC2998 cells at 10 uM after 48 hrs by sulforhodamine B assay; conditions: HCC 2998, 48 h, read-out: GI
IGROV-1 = test: Growth inhibition of human IGROV1 cells at 10 uM after 48 hrs by sulforhodamine B assay; conditions: IGROV-1, 48 h, read-out: GI
NCI-H322M = test: Growth inhibition of human NCI-H322M cells at 10 uM after 48 hrs by sulforhodamine B assay; conditions: read-out: GI
OVCAR-8 = test: Growth inhibition of human OVCAR8 cells at 10 uM after 48 hrs by sulforhodamine B assay; conditions: OVCAR-8, 48 h, read-out: GI
MCF7 = test: Growth inhibition of human MCF7 cells at 10 uM after 48 hrs by sulforhodamine B assay; conditions: MCF7, 48 h, read-out: GI
U-251 = test: Growth inhibition of human U251 cells at 10 uM after 48 hrs by sulforhodamine B assay; conditions: U-251, 48 h, read-out: GI
OVCAR-4 = test: Growth inhibition of human OVCAR4 cells at 10 uM after 48 hrs by sulforhodamine B assay; conditions: OVCAR-4, 48 h, read-out: GI
ACHN = test: Growth inhibition of human ACHN cells at 10 uM after 48 hrs by sulforhodamine B assay; conditions: read-out: GI
A498 = test: Growth inhibition of human A498 cells at 10 uM after 48 hrs by sulforhodamine B assay; conditions: A498, 48 h, read-out: GI
NCI-H460 = test: Growth inhibition of human NCI-H460 cells at 10 uM after 48 hrs by sulforhodamine B assay; conditions: NCI-H460, 48 h, read-out: GI
PC-3 = test: Growth inhibition of human PC3 cells at 10 uM after 48 hrs by sulforhodamine B assay; conditions: PC-3, 48 h, read-out: GI
MOLT-4 = test: Growth inhibition of human MOLT4 cells at 10 uM after 48 hrs by sulforhodamine B assay; conditions: MOLT-4, 48 h, read-out: GI
NCI-H226 = test: Growth inhibition of human NCI-H226 cells at 10 uM after 48 hrs by sulforhodamine B assay; conditions: NCI-H226, 48 h, read-out: GI
OVCAR-5 = test: Growth inhibition of human OVCAR5 cells at 10 uM after 48 hrs by sulforhodamine B assay; conditions: OVCAR-5, 48 h, read-out: GI
T47D = test: Growth inhibition of human T47D cells at 10 uM after 48 hrs by sulforhodamine B assay; conditions: read-out: GI
HOP-92 = test: Growth inhibition of human HOP92 cells at 10 uM after 48 hrs by sulforhodamine B assay; conditions: HOP-92, 48 h, read-out: GI
TK-10 = test: Growth inhibition of human TK10 cells at 10 uM after 48 hrs by sulforhodamine B assay; conditions: TK-10, 48 h, read-out: GI
RPMI-8226 = test: Growth inhibition of human RPMI8226 cells at 10 uM after 48 hrs by sulforhodamine B assay; conditions: RPMI-8226, 48 h, read-out: GI
SR = test: Growth inhibition of human SR cells at 10 uM after 48 hrs by sulforhodamine B assay; conditions: read-out: GI
UO-31 = test: Growth inhibition of human UO31 cells at 10 uM after 48 hrs by sulforhodamine B assay; conditions: UO-31, 48 h, read-out: GI
SNB-19 = test: Growth inhibition of human SNB19 cells at 10 uM after 48 hrs by sulforhodamine B assay; conditions: SNB-19, 48 h, read-out: GI
Hs-578T = test: Growth inhibition of human Hs578T cells at 10 uM after 48 hrs by sulforhodamine B assay; conditions: read-out: GI
NCI-H522 = test: Growth inhibition of human NCI-H522 cells at 10 uM after 48 hrs by sulforhodamine B assay; conditions: NCI-H522, 48 h, read-out: GI
RXF 393 = test: Growth inhibition of human RXF393 cells at 10 uM after 48 hrs by sulforhodamine B assay; conditions: RXF 393, 48 h, read-out: GI
NCI/ADR-RES = test: Growth inhibition of human NCI/ADR-RES cells at 10 uM after 48 hrs by sulforhodamine B assay; conditions: read-out: GI
BT-549 = test: Growth inhibition of human BT549 cells at 10 uM after 48 hrs by sulforhodamine B assay; conditions: BT-549, 48 h, read-out: GI
MDA-MB-231 = test: Growth inhibition of human MDA-MB-231/ATCC cells at 10 uM after 48 hrs by sulforhodamine B assay; conditions: MDA-MB-231, 48 h, read-out: GI
CAKI-1 = test: Growth inhibition of human CAKI-1 cells at 10 uM after 48 hrs by sulforhodamine B assay; conditions: CAKI-1, 48 h, read-out: GI
SK-MEL-5 = test: Growth inhibition of human SK-MEL-5 cells at 10 uM after 48 hrs by sulforhodamine B assay; conditions: SK-MEL-5, 48 h, read-out: GI
LOX IMVI = test: Growth inhibition of human LOXIMVI cells at 10 uM after 48 hrs by sulforhodamine B assay; conditions: read-out: GI
NCI-H23 = test: Growth inhibition of human NCI-H23 cells at 10 uM after 48 hrs by sulforhodamine B assay; conditions: NCI-H23, 48 h, read-out: GI
A549 = test: Growth inhibition of human A549/ATCC cells at 10 uM after 48 hrs by sulforhodamine B assay; conditions: A549, 48 h, read-out: GI

With `CO[C@@H]1[C@@H](OC)N(S(=O)(=O)c2ccc(Cl)cc2)C(=O)N1S(=O)(=O)c1ccc(Cl)cc1` (relative stereo) the inhibition of growth at 10 µM (M14) was 6.23%, the inhibition of growth at 10 µM (DU-145) was -9.28% and the inhibition of growth at 10 µM (COLO 205) was -3.4%. For the same molecule, the inhibition of growth at 10 µM (SF-268) was 1.84%, the inhibition of growth at 10 µM (SNB-75) was 19.7% and the inhibition of growth at 10 µM (MDA-MB-468) was 6.61%. For the same molecule, the inhibition of growth at 10 µM (UACC-62) was 42.1%, the inhibition of growth at 10 µM (K562) was 23.2% and the inhibition of growth at 10 µM (HCC 2998) was 5.43%. It also gave an inhibition of growth at 10 µM (IGROV-1) of 23.1%, an inhibition of growth at 10 µM (NCI-H322M) of 14.7% and an inhibition of growth at 10 µM (OVCAR-8) of 9.39%. The inhibition of growth at 10 µM (MCF7) was 16%, the inhibition of growth at 10 µM (U-251) was 6.07% and the inhibition of growth at 10 µM (OVCAR-4) was 21.3%. The inhibition of growth at 10 µM (ACHN) was 9.71%, the inhibition of growth at 10 µM (A498) was 4.59% and the inhibition of growth at 10 µM (NCI-H460) was -1.36%. The inhibition of growth at 10 µM (PC-3) was 29.8%, the inhibition of growth at 10 µM (MOLT-4) was 43.5% and the inhibition of growth at 10 µM (NCI-H226) was 4.24%. The inhibition of growth at 10 µM (OVCAR-5) was 8.25%, the inhibition of growth at 10 µM (T47D) was 9.2% and the inhibition of growth at 10 µM (HOP-92) was 49.9%. For the same molecule, the inhibition of growth at 10 µM (TK-10) was 7.51%, the inhibition of growth at 10 µM (RPMI-8226) was 21.9% and the inhibition of growth at 10 µM (SR) was 34.7%. The inhibition of growth at 10 µM (UO-31) was 39.4%, the inhibition of growth at 10 µM (SNB-19) was 2.72% and the inhibition of growth at 10 µM (Hs-578T) was -4.94%. For the same molecule, the inhibition of growth at 10 µM (NCI-H522) was 26.7%, the inhibition of growth at 10 µM (RXF 393) was -11.5% and the inhibition of growth at 10 µM (NCI/ADR-RES) was 13.8%. For the same molecule, the inhibition of growth at 10 µM (BT-549) was 2.35%, the inhibition of growth at 10 µM (MDA-MB-231) was 23.4% and the inhibition of growth at 10 µM (CAKI-1) was 67.5%. The inhibition of growth at 10 µM (SK-MEL-5) was -2.95%, the inhibition of growth at 10 µM (LOX IMVI) was 5.58% and the inhibition of growth at 10 µM (NCI-H23) was 8.09%. For the same molecule, the inhibition of growth at 10 µM (A549) was 21.7%.
